Where “and” joins values, the source holds several entries; their conditions need not be identical. Equal values may be shown once.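 Growth conditions: 96-well plates. Treatment: test compound, 48 hours, 5 concentrations. Analysis: linear interpolation between bracketing concentrations; unreached endpoints set to highest concentration. Abbreviation: GI50, concentration required for 50% inhibition of growth. TGI: total growth inhibition.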
Key:
Test in all cases: NCI anticancer screen, dose series, 48 h
[1] = system: 786-0 renal
[2] = system: A498 renal
[3] = system: BT-549 breast
[4] = system: CAKI-1 renal
[5] = system: CCRF-CEM leukemia
[6] = system: COLO 205 colon
[7] = system: DU-145 prostate
[8] = system: EKVX NSCLC
[9] = system: HCC-2998 colon
[10] = system: HCT-116 colon
[11] = system: HCT-15 colon
[12] = system: HL-60(TB) leukemia
[13] = system: HOP-62 NSCLC
[14] = system: HOP-92 NSCLC
[15] = system: HS 578T breast
[16] = system: HT29 colon
[17] = system: IGROV1 ovarian
[18] = system: K-562 leukemia
[19] = system: KM12 colon
[20] = system: LOX IMVI melanoma
[21] = system: M14 melanoma
[22] = system: MALME-3M melanoma
[23] = system: MCF7 breast
[24] = system: MDA-MB-231 breast
[25] = system: MDA-MB-435
[26] = system: MOLT-4 leukemia
[27] = system: NCI-H23 lung
[28] = system: NCI-H460 lung
[29] = system: NCI-H522 lung
[30] = system: NCI/ADR-RES ovarian
[31] = system: OVCAR-4 ovarian
[32] = system: OVCAR-5 ovarian
[33] = system: OVCAR-8 ovarian
[34] = system: PC-3 prostate
[35] = system: RPMI-8226 leukemia
[36] = system: RXF 393 renal
[37] = system: SF-268 CNS
[38] = system: SF-539 CNS
[39] = system: SK-MEL-28 melanoma
[40] = system: SK-OV-3 ovarian
[41] = system: SN12C renal
[42] = system: SNB-19 CNS
[43] = system: SNB-75 CNS
[44] = system: SW-620 colon
[45] = system: T-47D breast
[46] = system: TK-10 renal
[47] = system: U251 CNS
[48] = system: UACC-62 melanoma
[49] = system: UO-31 renal

Q: How did the GI50 [1] turn out when C/C=C/C1=CN2C(=O)c3cc(OC4OC(C)C(NC)C(C)(O)C4O)c(C)cc3N=C[C@@H]2C1 (stereo partly specified) was run?
A: 22.6 nM

Q: And the TGI [1]?
A: 49.3 nM

Q: And the GI50 [2]?
A: 17.3 nM

Q: And the TGI [2]?
A: 31.9 nM

Q: And the GI50 [3]?
A: 19.1 nM

Q: What about the TGI [3] of the same compound?
A: 40.8 nM

Q: What about the GI50 [4] of the same compound?
A: 39.1 nM

Q: What about the GI50 [5] of the same compound?
A: 13 nM

Q: What about the GI50 [6] of the same compound?
A: 17.5 nM

Q: And the TGI [6]?
A: 41.1 nM

Q: What about the GI50 [7] of the same compound?
A: 38.2 nM

Q: And the TGI [7]?
A: 1580 nM

Q: What about the GI50 [8] of the same compound?
A: 242 nM

Q: And the TGI [8]?
A: 20.3 nM

Q: And the GI50 [9]?
A: 58.5 nM

Q: And the TGI [9]?
A: 336 nM

Q: What about the TGI [10] of the same compound?
A: 11600 nM

Q: And the GI50 [11]?
A: 174 nM

Q: And the TGI [11]?
A: 11500 nM

Q: What about the GI50 [12] of the same compound?
A: 21.1 nM

Q: And the TGI [12]?
A: 101 nM

Q: What about the GI50 [13] of the same compound?
A: 22.2 nM

Q: What about the TGI [13] of the same compound?
A: 70.3 nM

Q: And the GI50 [14]?
A: 68.7 nM

Q: What about the TGI [14] of the same compound?
A: > 100000 nM

Q: What about the GI50 [15] of the same compound?
A: 53.9 nM

Q: What about the GI50 [16] of the same compound?
A: 24.2 nM

Q: And the TGI [16]?
A: 66 nM

Q: What about the GI50 [17] of the same compound?
A: 30 nM

Q: What about the GI50 [18] of the same compound?
A: 25.8 nM

Q: What about the GI50 [19] of the same compound?
A: 34.5 nM

Q: And the TGI [19]?
A: 544 nM

Q: What about the GI50 [20] of the same compound?
A: 13.3 nM

Q: What about the TGI [20] of the same compound?
A: 41.5 nM

Q: What about the GI50 [21] of the same compound?
A: 14.1 nM

Q: And the TGI [21]?
A: 31.2 nM

Q: What about the GI50 [22] of the same compound?
A: 20.1 nM

Q: What about the TGI [22] of the same compound?
A: 39.6 nM

Q: And the GI50 [23]?
A: 8.47 nM

Q: And the TGI [23]?
A: 11900 nM

Q: What about the GI50 [24] of the same compound?
A: 35.7 nM

Q: And the TGI [24]?
A: 17100 nM

Q: What about the GI50 [25] of the same compound?
A: 15.8 nM

Q: What about the TGI [25] of the same compound?
A: 32 nM

Q: What about the GI50 [26] of the same compound?
A: 12.4 nM

Q: And the TGI [26]?
A: 178 nM

Q: What about the GI50 [27] of the same compound?
A: 19.7 nM

Q: And the TGI [27]?
A: 282 nM

Q: And the GI50 [28]?
A: 23.7 nM

Q: And the GI50 [29]?
A: 7.62 nM

Q: What about the TGI [29] of the same compound?
A: 30.1 nM

Q: What about the TGI [30] of the same compound?
A: 735 nM

Q: What about the GI50 [31] of the same compound?
A: 25.8 nM

Q: What about the GI50 [32] of the same compound?
A: 43.1 nM

Q: And the TGI [32]?
A: 10400 nM

Q: And the GI50 [33]?
A: 17.9 nM

Q: And the TGI [33]?
A: 87 nM

Q: And the GI50 [34]?
A: 44.1 nM

Q: And the TGI [34]?
A: 26800 nM

Q: What about the GI50 [35] of the same compound?
A: 24.6 nM

Q: And the TGI [35]?
A: 94.7 nM

Q: And the GI50 [36]?
A: 14 nM

Q: What about the TGI [36] of the same compound?
A: 31.5 nM

Q: And the GI50 [37]?
A: 21.6 nM

Q: What about the TGI [37] of the same compound?
A: 37.2 nM

Q: And the GI50 [38]?
A: 18.3 nM

Q: What about the TGI [38] of the same compound?
A: 137 nM

Q: What about the GI50 [39] of the same compound?
A: 22.5 nM

Q: What about the TGI [39] of the same compound?
A: 50.8 nM

Q: What about the TGI [40] of the same compound?
A: 11900 nM

Q: And the GI50 [41]?
A: 33 nM

Q: And the TGI [41]?
A: 11100 nM

Q: And the GI50 [42]?
A: 30.7 nM

Q: And the TGI [42]?
A: 12400 nM

Q: What about the GI50 [43] of the same compound?
A: 15.9 nM

Q: What about the TGI [43] of the same compound?
A: 55.5 nM

Q: What about the GI50 [44] of the same compound?
A: 22.4 nM

Q: What about the GI50 [45] of the same compound?
A: 24.7 nM

Q: What about the GI50 [46] of the same compound?
A: 26.4 nM

Q: What about the TGI [46] of the same compound?
A: 68.3 nM

Q: And the GI50 [47]?
A: 14.8 nM

Q: And the TGI [47]?
A: 245 nM and 130 nM

Q: What about the GI50 [48] of the same compound?
A: 16.7 nM

Q: And the TGI [48]?
A: 36.1 nM

Q: And the GI50 [49]?
A: 24 nM

Q: What about the TGI [49] of the same compound?
A: 59.6 nM

From PubChem BioAssay (NCI)
